From publication PMC4889062, “Tachykinin-Related Peptides Share a G Protein-Coupled Receptor with Ion Transport Peptide-Like in the Silkworm Bombyx mori” (PLoS ONE, 2016)
Peptide text beside a SMILES is read from it.

Legend:
[1] = target: EGFP-fused BNGR-A24 (Bombyx mori neuropeptide G protein-coupled receptor A24) (Bombyx mori) (UniProt B3XXN7); assay: fluorescent-ligand binding on cells (confocal microscopy); CHO cells expressing EGFP-fused BNGR-A24, pre-incubated at 4°C for 30 min; unlabeled competitor added, then RR-labeled ligand; 4°C for 60 min; washed and fixed (4% formaldehyde in PBS); RR fluorescence normalized by EGFP
BNGR-A24 [2] = target: T1, BNGR-A24 (Bombyx mori, UniProt B3XXN7); assay: cell-based
T1 sequence (B3XXN7 1-391): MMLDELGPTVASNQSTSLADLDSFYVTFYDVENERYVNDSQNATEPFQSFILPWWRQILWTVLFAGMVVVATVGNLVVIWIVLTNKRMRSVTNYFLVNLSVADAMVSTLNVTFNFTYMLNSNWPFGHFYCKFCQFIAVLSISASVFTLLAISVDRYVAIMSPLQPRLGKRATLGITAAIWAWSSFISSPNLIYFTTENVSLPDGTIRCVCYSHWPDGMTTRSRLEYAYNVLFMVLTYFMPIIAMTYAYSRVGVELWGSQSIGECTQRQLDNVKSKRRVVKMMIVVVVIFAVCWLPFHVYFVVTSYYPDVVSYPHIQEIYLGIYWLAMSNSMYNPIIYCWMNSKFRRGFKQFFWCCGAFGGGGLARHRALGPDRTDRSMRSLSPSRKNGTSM
Description: (§1) The assays were performed as previously reported. Briefly, HEK293T cells seeded on a glass-based dish were co-transfected with pME18S plasmids carrying BNGRs and the promiscuous G protein alpha subunit, Gα15. Following 24 h incubation, the transfected cells were loaded with 500 μL of a Ca^2+ indicator solution (2 μM Fluo-4 AM [Dojin Chemicals, Kumamoto, Japan] and 0.01% Pluronic-F 127 [Anaspec, San Jose, CA, USA] in Opti-MEM [Life Technologies]) and incubated at 37°C for 30 min in a dark room. The cells were washed twice with Ringer’s solution and then 800 μL Ringer’s solution was added to the cells. Within a given run time, 100 μL of the following compounds were added sequentially: Ringer’s solution (at 15 s, vehicle control), the peptide of interest or a mixture with its potential competitor (at 60 s), and 100 μM ATP (at 120 s, an experimental control). Fluo-4-derived fluorescence was chronologically monitored using a confocal laser-scanning microscope (FV-1000D; Olympus, Tokyo, Japan), with the preinstalled dye mode for Fluo-3. At least three independent experiments were performed. Dose-response curves were generated and EC50 values were calculated from the obtained fitting curves.
In order to evaluate whether the three TRP receptor candidates, BNGR-A24, -A32, and -A33, function as receptors for B. mori TRPs, the response of these three BNGRs to chemically synthesized TRPs was examined using the Ca^2+ imaging assay.
The response of HEK293T cells co-expressing BNGR-A24 (A) or BNGR-A32 (B) and promiscuous mouse Gα15 to the TRPs was monitored using the Ca^2+ imaging technique. Dose-response curves are depicted as relative fluorescent intensity (mean ± S.D.; n = 3).

BNGR-A32 = target: T2, BNGR-A32 (Bombyx mori, UniProt B3XXP5); assay: Ca2+ imaging assay of BNGR-A32 in HEK293T cells co-expressing Gα15; assay type: cell-based; details: HEK293T cells co-expressing BNGR-A32 and promiscuous mouse Gα15; Fluo-4 Ca2+ imaging; from fitted dose-response curves, n = 3
T2 sequence (B3XXP5 1-372): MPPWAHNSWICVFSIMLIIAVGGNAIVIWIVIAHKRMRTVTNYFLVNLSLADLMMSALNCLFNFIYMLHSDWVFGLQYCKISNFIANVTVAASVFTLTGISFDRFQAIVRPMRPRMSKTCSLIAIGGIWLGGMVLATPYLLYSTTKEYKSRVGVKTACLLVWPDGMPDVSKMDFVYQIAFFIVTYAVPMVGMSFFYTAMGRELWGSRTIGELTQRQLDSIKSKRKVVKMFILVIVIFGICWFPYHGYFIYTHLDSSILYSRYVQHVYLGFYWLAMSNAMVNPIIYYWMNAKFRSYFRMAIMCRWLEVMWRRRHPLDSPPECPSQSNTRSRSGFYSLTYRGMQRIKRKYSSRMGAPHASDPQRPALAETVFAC
Description: as §1, with “curves. […]” for “curves.”
The response of HEK293T cells co-expressing BNGR-A24 (A) or BNGR-A32 (B) and promiscuous mouse Gα15 to the TRPs was monitored using the Ca^2+ imaging technique. […]

BNGR-A24 [3] = target: T1, BNGR-A24; assay: Competitive binding assay, RR-labeled ligands and CHO cells expressing EGFP-fused BNGR-A24; details: CHO cells, EGFP-fused BNGR-A24, 4°C
Description: Binding assays were performed as previously reported. Briefly, CHO cells were transfected with 2 μg of pME18S plasmids harboring enhanced green fluorescent protein (EGFP)-fused BNGR cDNA. The binding assay was performed with cells 24 h post transfection. The cells were pre-incubated at 4°C for 30 min prior to the assay to minimize receptor internalization by ligand binding. Following the addition of 50 μL of non-labeled ligand as a potential competitor, 50 μL of RR-labeled ligand was added. Subsequent to incubation at 4°C for 60 min, the cells were washed twice with an ice-cold fixation buffer (4% formaldehyde in PBS) and then 500 μL of the fixation buffer was added. The fluorescence derived from EGFP and RR was observed using a confocal microscope (FV-1000D) with preinstalled dye modes for EGFP and DsRed, respectively. The fluorescent data obtained from six individual cells of at least two independent experiments were analyzed using Fluoview software (Olympus).
Following 30-min exposure of the cells to RR-labeled rITPL or TK-4, both red fluorescence (derived from the RR-labeled ligands) and green fluorescence (derived from EGFP C-terminally fused to BNGR-A24) were observed on the cell surface, indicating ligand-receptor binding (Fig 4). […] In this case, the addition of 20 μM rITPL reduced the ligand-derived signal by approximately 90% compared to that observed without the addition of unlabeled ligand.
Fig 4 In vitro competitive binding assay of rITPL and TK-4 to BNGR-A24. (A–D) Microscopic imaging. The binding of RR-labeled ligands (A and C, rITPL; B and D, TK-4) and CHO cells expressing EGFP-fused BNGR-A24 was examined in the presence of potential competitors (A, TK-4; B, rITPL; C and D, spantide I [SP]). EGFP and RR fluorescences were observed by confocal microscopy. Co-localization is presented as yellow in the merged images (Merge). Representative images of cells from at least two independent experiments are shown. (E–H) Relative fluorescent intensity obtained from experiment images (A)–(D), respectively. […]

BNGR-A24 [4] = target: T1, BNGR-A24; assay: Ca2+ imaging assay of BNGR-A24 with competitor added together with the ligand; assay type: cell-based
Description: The assays were performed as previously reported. […] At least three independent experiments were performed.
Next, we examined the effect of simultaneous addition of spantide I and rITPL on ligand competition. The dose-response curve of 10–300 nM rITPL shifted in a similar manner to that observed for TK-4.
Fig 3 Effect of spantide I on the response of BNGR-A24 to rITPL and TK-4. Spantide I (SP), a potential competitor, was added together with rITPL or TK-4 and the response of BNGR-A24 was monitored using the Ca^2+ imaging assay. Dose-response curves of the responses are presented as relative fluorescent intensity (mean ± S.D.; n = 3). Asterisks indicate significant differences for treatment with the same ligand without spantide I (P < 0.05; Dunnett’s test).

[5] = target: EGFP-fused BNGR-A24 (Bombyx mori neuropeptide G protein-coupled receptor A24) (Bombyx mori) (UniProt B3XXN7)
[6] = tested on: BmN cells (BNGR-A24-expressing); assay: Competitive cGMP assay in BmN cells; assay type: cell-based, Bombyx mori; details: 30 min, IBMX
Description: BmN cells were plated in 12-well tissue culture plates (2 × 10^5 cells/well; Asahi glass, Yokohama, Japan) and maintained in normal growth medium (TC-100 [Applichem, Darmstadt, Germany], 10% FBS, and 50 μg/mL gentamycin). At 3 days post-seeding, the cells were pre-incubated in 800 μL of assay medium (TC-100 supplemented with 1 mM 1-methyl-3-isobutylxanthine [IBMX; Sigma-Aldrich, Tokyo, Japan]) and 1 mM phenylmethylsulfonyl fluoride for 10 min at 28°C. Following pre-incubation, 100 μL of a potential competitor and 100 μL of the peptide of interest were added sequentially to the medium and incubated at 28°C for 30 min. […] The extracted cAMP and cGMP were quantified in duplicate using a cAMP ELISA kit (Cayman Chemicals, Ann Arbor, MI, USA) and a cGMP EIA system (GE Healthcare, Hino, Japan), respectively. […]
Since ITPL and TK-4 are competitive ligands of BNGR-A24, we hypothesized that TK-4 might inhibit the cGMP signal induced by ITPL via the binding of ITPL to BNGR-A24. To confirm this hypothesis, we added an excess of TK-4 to BmN cells exposed to rITPL and evaluated the stimulatory effect of ITPL on the cGMP signal.
Fig 5 Effects of TK-4, rITPL, and spantide I on cyclic nucleotide levels in BmN cells. Intracellular cGMP (A) and cAMP (B) levels in BmN cells following 30-min incubation with the peptide and reagent of interest at the indicated concentrations were measured. […]

[7] = target: BNGR-A32 (Bombyx mori neuropeptide G protein-coupled receptor A32) (Bombyx mori)

**Q.** With “Recombinant B. mori ion transport peptide-like (rITPL) (ligand)” as the compound, how does the percent reduction of the RR-labeled TK-4 signal at 20 uM rITPL [1] read?
**A.** The percent reduction of the RR-labeled TK-4 signal at 20 uM rITPL was 90%.

**Q.** How did the EC50 (BNGR-A24 [2]) turn out when `CC[C@H](C)[C@H](N)C(=O)N1CCC[C@H]1C(=O)N[C@@H](CCC(N)=O)C(=O)NCC(=O)N[C@@H](Cc1ccccc1)C(=O)N[C@@H](CC(C)C)C(=O)NCC(=O)N[C@@H](CCSC)C(=O)N[C@@H](CCCNC(=N)N)C(N)=O` [TK-1] (H-IPQGFLGMR-NH2; N-terminus assumed) was run?
**A.** The EC50 was 7.1 nM.

**Q.** Which EC50 (BNGR-A24 [2]) does the source give for `CSCC[C@H](NC(=O)CNC(=O)[C@H](Cc1ccccc1)NC(=O)[C@H](Cc1ccccc1)NC(=O)CNC(=O)[C@H](CCSC)NC(=O)[C@H](CCC(N)=O)NC(=O)CN)C(=O)N[C@@H](CCCNC(=N)N)C(N)=O` [TK-5] (H-GQMGFFGMR-NH2) here?
**A.** The EC50 was 2.3 nM.

**Q.** What about the EC50 (BNGR-A32) of the same compound?
**A.** The EC50 was 0.48 nM.

**Q.** What does the source list for spantide I?
**A.** Fluorescence derived from RR-labeled TK-4 (BNGR-A24 [3]; 50 μM spantide I as competitor): nearly complete quenching; Fluorescence derived from RR-labeled rITPL (BNGR-A24 [3]; 50 μM spantide I as competitor): nearly complete quenching; Effect on response of BNGR-A24 to rITPL (BNGR-A24 [4]; 50 μM spantide I added with 10–300 nM rITPL, n = 3, vs no competitor): significantly lower; Effect on response of BNGR-A24 to TK-4 (BNGR-A24 [4]; simultaneous treatment with 10 μM or 50 μM spantide I, n = 3, Dunnett's test P < 0.05): significantly decreased

**Q.** With B. mori tachykinin-related peptide TK-2 as the compound, how does the EC50 of the Ca2+ imaging response (Fluo-4) of HEK293T cells co-expressing BNGR-A24 and Galpha15 [5] read?
**A.** The EC50 of the Ca2+ imaging response (Fluo-4) of HEK293T cells co-expressing BNGR-A24 and Galpha15 was 0.49 nM.

**Q.** For `CC[C@H](C)[C@H](NC(=O)[C@H](Cc1ccccc1)NC(=O)[C@H](CCCCN)NC(=O)CNC(=O)[C@H](CCCNC(=N)N)NC(=O)[C@@H](NC(=O)[C@H](CO)NC(=O)[C@H](CC(C)C)NC(=O)[C@H](CC(=O)O)NC(=O)[C@H](Cc1ccc(O)cc1)NC(=O)[C@@H]1CCCN1)[C@@H](C)CC)C(=O)NCC(=O)N[C@H](C(=O)N[C@@H](CCCNC(=N)N)C(N)=O)C(C)C` [TK-4] (H-PYDLSIRGKFIGVR-NH2; N-terminus assumed), which EC50 (BNGR-A24 [2]) is on record?
**A.** Its EC50 is 0.27 nM.

**Q.** And the “Fluorescence of RR-labeled rITPL on the cell surface” value (BNGR-A24 [3]; 1–100 μM unlabeled TK-4 added before RR-labeled rITPL)?
**A.** Its value is “gradually decreased”.

**Q.** And the “Effect on rITPL-induced cGMP levels” value ([6]; BmN cells exposed to 100 nM rITPL, ≥3 μM TK-4 added as competitor)?
**A.** Its value is “significant decrease”.

**Q.** And the “Intracellular cGMP levels” value ([6]; BmN cells, peptide alone at concentrations as high as 10 μM, 28°C, cGMP EIA)?
**A.** Its value is “failed to increase”.

**Q.** For B. mori tachykinin-related peptide TK-1, which EC50 of the Ca2+ imaging response (Fluo-4) of HEK293T cells co-expressing BNGR-A24 and Galpha15 [5] is on record?
**A.** Its EC50 of the Ca2+ imaging response (Fluo-4) of HEK293T cells co-expressing BNGR-A24 and Galpha15 is 7.1 nM.

**Q.** `CSCC[C@H](NC(=O)[C@H](CC(N)=O)NC(=O)[C@H](C)NC(=O)[C@H](C)N)C(=O)N[C@@H](Cc1c[nH]cn1)C(=O)N[C@@H](CCC(N)=O)C(=O)N[C@@H](Cc1ccccc1)C(=O)N[C@@H](Cc1ccc(O)cc1)C(=O)NCC(=O)N[C@H](C(=O)N[C@@H](CCCNC(=N)N)C(N)=O)C(C)C` [TK-3] (H-AANMHQFYGVR-NH2; N-terminus assumed) was tested. Which EC50 (BNGR-A24 [2]) did it give?
**A.** The EC50 was 0.79 nM.

**Q.** How did the EC50 of the Ca2+ imaging response (Fluo-4) of HEK293T cells co-expressing BNGR-A24 and Galpha15 [5] turn out when B. mori tachykinin-related peptide TK-3 was run?
**A.** Its EC50 of the Ca2+ imaging response (Fluo-4) of HEK293T cells co-expressing BNGR-A24 and Galpha15 is 0.79 nM.

**Q.** For B. mori tachykinin-related peptide TK-4, which EC50 of the Ca2+ imaging response (Fluo-4) of HEK293T cells co-expressing BNGR-A24 and Galpha15 [5] is on record?
**A.** Its EC50 of the Ca2+ imaging response (Fluo-4) of HEK293T cells co-expressing BNGR-A24 and Galpha15 is 0.27 nM.

**Q.** What does the source list for B. mori tachykinin-related peptide TK-5?
**A.** EC50 of the Ca2+ imaging response (Fluo-4) of HEK293T cells co-expressing BNGR-A32 and Galpha15 [7]: 0.48 nM; EC50 of the Ca2+ imaging response (Fluo-4) of HEK293T cells co-expressing BNGR-A24 and Galpha15 [5]: 2.3 nM
